Key:
porcine buccal mucosa = test: Transepithelial transport of [3H]water across porcine buccal mucosa in vitro, continuous flow apparatus; type: in vitro ADME
Method: (§1) Porcine buccal and nasal mucosa (lateral) was obtained at slaughter and utilized within 3 hours of harvest. Tissue samples approximately 8 mm in diameter were mounted between two halves of through-flow mucosal perfusion cells exposing an area of epithelial surface approximately 0.20 cm^2 for transepithelial transport. The chambers were mounted on water-jacketed blocks maintained at 37° C. During the set up period, the exposed epithelial surface was kept moist with phosphate buffered saline (PBS, 0.01M, pH 7.4). The buffer solution was removed by vacuum immediately prior to application of labeled test compound. […] In the receiver compartment, PBS was continuously pumped through the lower chamber (i.e., blood compartment) as a collection fluid at rate of 1.8 mL/hr, which was previously determined to be sufficient to maintain sink conditions in the receiver compartment. This fluid was collected into scintillation vials for 1 or 2 hour intervals over the entire collection period and radioactivity was determined by liquid scintillation counter. Transepithelial flux of the marker solute in the presence of various concentrations of permeation enhancers was calculated at each sampling interval from the relationship: Flux=Q/At where Q is the finite quantity of solute traversing the tissue barrier (dpm) in time t (min); A is the area of epithelial surface exposed in cm^2. […]

porcine nasal mucosa = test: Transepithelial transport of [3H]water across porcine nasal mucosa in vitro, continuous flow apparatus; type: in vitro ADME
Method: as §1

healthy female rabbits = details: rabbit, in vivo
Method: A 10 day, repeat dose, vaginal toxicity study was conducted in healthy female rabbits. Three doses and two controls were used. […] Doses of SUPPOCIRE® and SUPPOCIRE® plus ethoxydiglycol were used as controls. The study findings are summarized below.

[1] = essentially the same amount as i.v.; cited from earlier work

| mean steady state Kp of [3H]water (porcine buccal mucosa; in the presence of 30% (v/v) TRANSCUTOL, n=7) | mean steady state Kp of [3H]water (porcine nasal mucosa; in the presence of 15% (v/v) TRANSCUTOL, n=7) | Compound | increase of mean steady state Kp as compared to control (porcine buccal mucosa; 30% (v/v) TRANSCUTOL versus control) [%] | increase of mean steady state Kp compared to control PBS (porcine nasal mucosa; 15% (v/v) TRANSCUTOL versus control PBS) [%] | NOEL (healthy female rabbits; female, 10 days) [mg/3 kg rabbit dose] | NOEL, equivalent human dose (healthy female rabbits; female, 10 days) [mg] | finding on cervix or uterus (healthy female rabbits) | one-time human dose extrapolated to be safe (healthy female rabbits) [mg] | systemic side effects (healthy female rabbits) | systemic level after oral administration compared to i.v. administration [1] |
| --- | --- | --- | --- | --- | --- | --- | --- | --- | --- | --- |
| 1.11±0.01×10^−3 cm/min | 1.83±0.02×10^−3 cm/min | CCOCCOCCO [TRANSCUTOL®, diethyleneglycol monoethyl ether] | ~25 | ~37 |  |  |  |  |  |  |
|  |  | NCCCC(O)(P(=O)(O)O)P(=O)(O)O [alendronate] |  |  | 0.013 | 0.3 | No erythema, inflammation or erosion | 10 | no systemic side effects | below 1% |

From patent US7939098B2, “Compositions and method for transmucosal drug delivery and cryoprotection” (Femina Pharma Incorporated, priority 2002, dated 2011)
